Assay results from patent US5004780A, “Cyclic monoperoxyketal” (priority 1988, dated 1991).

How the values were obtained:
Type in all cases: physicochemical
[1] = Thermal decomposition product of peroxyketal in cumene (gas chromatography)
Experimental: Each of the thermal decomposition reaction solutions of Example 7 and Comparative example 1 was analyzed by means of a gas chromatography to measure the thermal decomposition products. The number of mols of the decomposition products per 1 mol of each of the decomposed peroxyketals was calculated. The obtained results are shown in the following Table 3 as Example 16 and Comparative example 7.

[2] = Amounts of ketone and alcohol formed by the thermal decomposition of peroxyketal in cumene; conditions: 100° C.
Experimental: The amount of ketone and that of alcohol contained in each of the thermal decomposition solutions obtained in Examples 6-12 and Comparative examples 1-6 were measured by means of a gas chromatography. The numbers of mols of ketone and alcohol per 1 mol of each of decomposed cyclic monoperoxyketal or cyclic bisperoxyketal were measured. The obtained results are shown in the following Table 4 as Examples 17-22 and Comparative examples 8-13.

[3] = Solubility of peroxyketal in unsaturated polyester resin; set-up: key: .circle.: Complete dissolving; Δ: Fairly long time was required in dissolving; X: Incomplete dissolving (white turbid)
[4] = Thermal decomposition of peroxyketal in cumene at 100° C.; conditions: 0.05 mol/l; for Half-life period: 50000 µM
Experimental: (§1) A 0.05 mol/l cumene solution of each of the cyclic monoperoxyketals of the present invention produced in Examples 1-6 and the cyclic bisperoxyketals produced in the same manner as described in Examples 1-6 was prepared. A given amount of each sample solution was sampled into a glass ampule, and the sample solution was deaerated by a freezing method, and then the ampule was sealed under vacuum. Then, the ampules were put in a thermostat kept at 100° C., and taken out from the thermostate every predetermined times, and the concentration of peroxyketal was measured by a gas chromatography or liquid chromatography. The decomposition rate constant and half-life period of a sample peroxyketal were calculated from the disappearing rate of the peroxyketal. The obtained results are shown in the following Table 1 as Examples 6-12 and Comparative examples 1-6.

[5] = Thermal decomposition of 1-methoxy-1-(1,1-dimethylethylperoxy)cyclohexane at 100° C. in n-hexane, n-dodecane or n-hexadecane; conditions: for Half-life period: 50000 µM
Experimental: as §1
Thermal decomposition of 1-methoxy-1-(1,1-dimethylethylperoxy)cyclohexane at 100° C. was carried out in the same manner as described in Example 7, except that n-hexane, n-dodecane or n-hexadecane was used as a solvent in place of cumene, and the thermal decomposition rate constant and half-life period of the cyclic monoperoxyketal in these solvents were measured.

[6] = n-hexadecane, viscosity 0.900 cp

SMILES	Thermal decomposition product: 1,1-dimethylperoxyhexanoate ([1]; 100° C., 1,1-dimethylperoxyhexanoate)	Thermal decomposition product: biscumyl ([1]; 100° C.)	Thermal decomposition product: t-butanol ([1]; 100° C.)	Ratio of ketone to alcohol [2]	Thermal decomposition product: Alcohol [2]	Thermal decomposition product: Ketone [2]	Solubility [3]	Decomposition rate constant [4]	Half-life period [4] [h]	Thermal decomposition product: acetone ([1]; 100° C., acetone)	Thermal decomposition product: methyl hexanoate ([1]; 100° C., methyl hexanoate)	Decomposition rate constant ([5]; n-dodecane, viscosity 0.520 cp)	Half-life period ([5]; n-dodecane, viscosity 0.520 cp) [h]	Decomposition rate constant [5, 6]	Half-life period [5, 6] [h]	Decomposition rate constant ([5]; n-hexane, viscosity 0.168 cp)	Half-life period ([5]; n-hexane, viscosity 0.168 cp) [h]	Thermal decomposition product: Ketone (Acetophenone is formed) [2]
CC(C)(C)OOC1(OOC(C)(C)C)CCCCC1 [Comparative example 1, 1,1-bis(1,1-dimethylethylperoxy)cyclohexane, reference compound]	0.35 Number of mols per 1 mol of de	0.69 Number of mols per 1 mol of de	1.06 Number of mols per 1 mol of de	0.01	1.37 mols per 1 mol of decomposed p	0.02 mols per 1 mol of decomposed p	.circle.	5.06 ×10^5 (1/sec)	3.81	–	–	–	–	–	–	–	–	–
COC1(OOC(C)(C)C)CCCCC1 [Example 7, 1-methoxy-1-(1,1-dimethylethylperoxy)cyclohexane]	–	0.50 Number of mols per 1 mol of de	0.47 Number of mols per 1 mol of de	0.21	0.47 mols per 1 mol of decomposed p	0.10 mols per 1 mol of decomposed p	.circle.	6.79 ×10^5 (1/sec)	2.84	0.10 Number of mols per 1 mol of de	0.59 Number of mols per 1 mol of de	4.71 ×10^5 (1/sec)	4.09	4.23 ×10^5 (1/sec)	4.55	5.13 ×10^5 (1/sec)	3.75	–
CCC(C)(C)OOC1(OC)CCCCC1 [Example 8, 1-methoxy-1-(1,1-dimethylpropylperoxy)cyclohexane]	–	–	–	5.71	0.14 mols per 1 mol of decomposed p	0.80 mols per 1 mol of decomposed p	.circle.	10.58 ×10^5 (1/sec)	1.82	–	–	–	–	–	–	–	–	–
CCCC(C)(C)OOC1(OC)CCCCC1 [Example 9, 1-methoxy-1-(1,1-dimethylbutylperoxy)cyclohexane]	–	–	–	2.26	0.31 mols per 1 mol of decomposed p	0.70 mols per 1 mol of decomposed p	.circle.	11.20 ×10^5 (1/sec)	1.72	–	–	–	–	–	–	–	–	–
COC1(OOC(C)(C)CC(C)(C)C)CCCCC1 [Example 10, 1-methoxy-1-(1,1,3,3-tetramethylbutylperoxy)cyclohexane]	–	–	–	79.0	0.01 mols per 1 mol of decomposed p	0.79 mols per 1 mol of decomposed p	.circle.	28.40 ×10^5 (1/sec)	0.68	–	–	–	–	–	–	–	–	–
COC1(OOC(C)(C)c2ccccc2)CCCCC1 [Example 11, 1-methoxy-1-(1-methyl-1-phenylethylperoxy)cyclohexane]	–	–	–	0.42	0.60 mols per 1 mol of decomposed p	–	.circle.	11.32 ×10^5 (1/sec)	1.70	–	–	–	–	–	–	–	–	0.25 mols per 1 mol of decomposed p
CCCC(C)(C)OOC1(OC)CC(C)CC(C)(C)C1 (centres unmarked) [Example 12, 1-methoxy-1-(1,1-dimethylbutylperoxy)-3,3,5-trimethylcyclohexane]	–	–	–	2.27	0.30 mols per 1 mol of decomposed p	0.68 mols per 1 mol of decomposed p	.circle.	11.25 ×10^5 (1/sec)	1.71	–	–	–	–	–	–	–	–	–
CCC(C)(C)OOC1(OOC(C)(C)CC)CCCCC1 [compound 2, 1,1-bis(1,1-dimethylpropylperoxy)cyclohexane, reference compound]	–	–	–	2.81	0.26 mols per 1 mol of decomposed p	0.73 mols per 1 mol of decomposed p	Δ	7.32 ×10^5 (1/sec)	2.63	–	–	–	–	–	–	–	–	–
CCCC(C)(C)OOC1(OOC(C)(C)CCC)CCCCC1 [compound 3, 1,1-bis(1,1-dimethylbutylperoxy)cyclohexane, reference compound]	–	–	–	1.28	0.65 mols per 1 mol of decomposed p	0.83 mols per 1 mol of decomposed p	Δ	7.48 ×10^5 (1/sec)	2.57	–	–	–	–	–	–	–	–	–
CC(C)(C)CC(C)(C)OOC1(OOC(C)(C)CC(C)(C)C)CCCCC1 [compound 4, 1,1-bis(1,1,3,3-tetramethylbutylperoxy)cyclohexane, reference compound]	–	–	–	1.21	0.24 mols per 1 mol of decomposed p	0.29 mols per 1 mol of decomposed p	X	19.83 ×10^5 (1/sec)	0.97	–	–	–	–	–	–	–	–	–
CC(C)(OOC1(OOC(C)(C)c2ccccc2)CCCCC1)c1ccccc1 [compound 5, 1,1-bis(1-methyl-1-phenylethylperoxy)cyclohexane, reference compound]	–	–	–	0.41	1.00 mols per 1 mol of decomposed p	–	.circle.	8.24 ×10^5 (1/sec)	2.34	–	–	–	–	–	–	–	–	0.41 mols per 1 mol of decomposed p
CCCC(C)(C)OOC1(OOC(C)(C)CCC)CC(C)CC(C)(C)C1 (centres unmarked) [compound 6, 1,1-bis(1,1-dimethylbutylperoxy)-3,3,5-trimethylcyclohexane, reference compound]	–	–	–	1.25	0.64 mols per 1 mol of decomposed p	0.80 mols per 1 mol of decomposed p	Δ	7.50 ×10^5 (1/sec)	2.57	–	–	–	–	–	–	–	–	–
CC(C)(C)OOC(=O)c1ccccc1 [compound 28, 1,1-dimethylethyl peroxybenzoate]	–	–	–	–	–	–	.circle.	–	–	–	–	–	–	–	–	–	–	–
